From patent US20200048183A1, “ANTIMICROBIAL AGENTS” (THE UNIVERSITY OF WARWICK, priority 2017, published 2020) come the findings set out here.

This assay has as its system multi-drug resistant A. baumannii strains. The assay can be described thus: Minimum inhibitory concentration (MIC), broth microdilution method according to CLSI guidelines. The assay is classed as cell-based, Acinetobacter baumannii. The following applies: for MIC: Acinetobacter baumannii, read-out: MIC against A. baumannii. The protocol:
MIC values for the compounds were determined using the broth microdilution method according to the official CLSI guidelines. Acinetobacter baumannii test strains were grown overnight in Mueller-Hinton (MH) broth at 37° C. In a 96-well microtiter plate, 50 μl of serial two-fold dilutions of an enacyloxin derivative in MH broth were mixed with 50 μl of bacterial suspension, diluted to a concentration of 10^6 CFU/ml in MH broth. The desired inoculum density was achieved using a 0.5 McFarland turbidity standard.
Background: In broth dilution the organism is exposed to a series of concentrations in liquid medium.

The mark [1] stands for this setting: multi-drug resistant A. baumannii strains, broth microdilution in MH broth, 18 h at 37° C.

Values after ≈ are worked out from the molar mass of the structure shown. Where two headings read alike, the source gives them in different places.

The MIC is the lowest concentration found to suppress growth. Consider `CC/C=C/C1OC(O)(C[C@H](O)[C@H](C)/C(Cl)=C/C=C/C=C(C)/C=C/C=C/C(=O)O[C@@H]2C[C@@H](C(=O)O)CC[C@@H]2O)CC(O)C1Cl` (stereo partly drawn) [Compound 5, 14-dehydroxy-18-decarbamoyl-enacyloxin IIa], for which the MIC under setting [1] came out at 8 µg/mL (≈ 12.4 µM).

Turning to `CC/C=C/C(=O)C[C@H](O)CC(=O)[C@@H](O)[C@H](O)[C@H](C)/C(Cl)=C/C=C/C=C(C)/C=C/C=C/C(=O)O[C@@H]1C[C@@H](C(=O)O)CC[C@@H]1O` [Compound 10, 18-dechloro-decarbamoyl-enacyloxin IIa], the MIC (18 h) amounted to 32 µg/mL (≈ 51.4 µM).

With `CC/C=C/[C@@H](OC(N)=O)[C@@H](Cl)[C@H](O)CC(=O)[C@@H](O)[C@H](O)[C@H](C)/C(Cl)=C/C=C/C=C(C)/C=C/C=C/C(=O)N[C@H]1CCC[C@H](C(=O)O)C1` [Compound 21], the MIC under setting [1] was 8 µg/mL (≈ 11.7 µM).

Turning to `CC/C=C/[C@@H](OC(N)=O)[C@@H](Cl)[C@H](O)CC(=O)C[C@H](O)[C@H](C)/C(Cl)=C/C=C/C=C(C)/C=C/C=C/C(=O)O[C@@H]1C[C@@H](C(=O)O)CC[C@@H]1O` [Compound 1, 14-dehydroxy-enacyloxin IIa], under setting [1], the MIC was 2 µg/mL (≈ 2.91 µM).

Consider `CC/C=C/[C@@H](OC(N)=O)[C@@H](Cl)[C@H](O)CC(=O)[C@@H](O)[C@H](O)[C@H](C)/C(Cl)=C/C=C/C=C(C)/C=C/C=C/C(=O)NCC(O)CC(=O)O` (stereo partly drawn) [Compound 23, enacyloxin-4-amino-3-hydroxybutyric acid conjugate], for which the MIC (18 h) was found to be 64 µg/mL (≈ 96.7 µM).

As for `CC/C=C/[C@@H](O)[C@@H](Cl)[C@H](O)CC(O)[C@@H](O)[C@H](O)[C@H](C)/C(Cl)=C/C=C/C=C(C)/C=C/C=C/C(=O)O[C@@H]1C[C@@H](C(=O)O)CC[C@@H]1O` (stereo in doubt) [Compound 9, 15-hydroxy-decarbamoyl enacyloxin IIa], the MIC under setting [1] was 1 µg/mL (≈ 1.51 µM).

As for `CC/C=C/[C@@H](O)[C@@H](Cl)[C@H](O)CC(O)[C@@H](O)[C@H](O)[C@H](C)/C(Br)=C/C=C/C=C(C)/C=C/C=C/C(=O)O[C@@H]1C[C@@H](C(=O)O)CC[C@@H]1O` (stereo partly drawn) [Compound 34], the MIC (18 h) came to 2 µg/mL (≈ 2.83 µM).

Take `CC/C=C/[C@@H](O)C[C@H](O)CC(O)[C@@H](O)[C@H](O)[C@H](C)/C(Br)=C/C=C/C=C(C)/C=C/C=C/C(=O)O[C@@H]1C[C@@H](C(=O)O)CC[C@@H]1O` (stereo partly drawn) [Compound 35]: the MIC under setting [1] was 32 µg/mL (≈ 47.6 µM).

On to `CC/C=C/[C@@H](OC(N)=O)[C@@H](Cl)[C@H](O)CC(=O)[C@@H](O)[C@H](O)[C@H](C)/C(Br)=C/C=C/C=C(C)/C=C/C=C/C(=O)O[C@@H]1C[C@@H](C(=O)O)CC[C@@H]1O` [Compound 31], for which, under setting [1], the MIC stood at 2 µg/mL (≈ 2.68 µM).

For the compound `CC/C=C/[C@@H](OC(N)=O)[C@@H](Cl)[C@H](O)CC(=O)[C@@H](O)[C@H](O)[C@H](C)/C(Cl)=C/C=C/C=C(C)/C=C/C=C/C(=O)O[C@H]1CCC[C@H](C(=O)O)C1` [Compound 22], the MIC under setting [1] was 4 µg/mL (≈ 5.83 µM).

Turning to `CC/C=C/[C@@H](OC(N)=O)[C@@H](Cl)[C@H](O)CC(=O)[C@@H](O)[C@H](O)[C@H](C)/C=C/C=C/C=C(C)/C=C/C=C/C(=O)O[C@@H]1C[C@@H](C(=O)O)CC[C@@H]1O` [Compound 7, 11-dechloro-enacyloxin IIa], the MIC under setting [1] worked out at 4 µg/mL (≈ 5.99 µM).

On to `CC/C=C/[C@@H](OC(N)=O)[C@@H](Cl)[C@H](O)CC(=O)[C@@H](O)[C@H](O)[C@H](C)/C(Cl)=C/C=C/C=C(C)/C=C/C=C/C(=O)O[C@@H]1C[C@@H](C(=O)O)C[C@@H](O)[C@@H]1O` [Compound 4, 5′-hydroxy-enacyloxin IIa], for which, under “18 h”, the MIC amounted to 16 µg/mL (≈ 22.3 µM).

On to `CC/C=C/[C@H](C[C@H](O)CC(=O)[C@@H](O)[C@H](O)[C@H](C)/C(Br)=C/C=C/C=C(C)/C=C/C=C/C(=O)O[C@@H]1C[C@@H](C(=O)O)CC[C@@H]1O)OC(N)=O` [Compound 32], for which, under setting [1], the MIC stood at 16 µg/mL (≈ 22.5 µM).

As for `CC/C=C/[C@@H](OC(N)=O)[C@@H](Br)[C@H](O)CC(=O)[C@@H](O)[C@H](O)[C@H](C)/C(Br)=C/C=C/C=C(C)/C=C/C=C/C(=O)O[C@@H]1C[C@@H](C(=O)O)CC[C@@H]1O` [Compound 30], under setting [1], the MIC was determined as 1 µg/mL (≈ 1.26 µM).

In the case of `CC/C=C/C1OC(O)([C@@H](O)[C@H](O)[C@H](C)/C(Cl)=C/C=C/C=C(C)/C=C/C=C/C(=O)O[C@@H]2C[C@@H](C(=O)O)CC[C@@H]2O)CC(O)C1Cl` (stereo partly drawn) [Compound 3, decarbamoyl-enacyloxin IIa], under setting [1], the MIC turned out to be 4 µg/mL (≈ 6.06 µM).

In the case of 18-dechloro-enacyloxin IIa [Compound 2], the “MIC against A. baumannii” value under setting [1] is 4 µg/mL.

In the case of `CC/C=C/[C@@H](OC(N)=O)[C@@H](Cl)[C@H](O)CC(=O)[C@@H](O)[C@H](O)[C@H](C)/C(Cl)=C/C=C/C=C(C)/C=C/C=C/C(=O)O[C@@H]1C[C@H](C(=O)O)CC[C@H]1O` [Compound 17], under setting [1], the MIC turned out to be 2 µg/mL (≈ 2.85 µM).

`CC/C=C/[C@@H](O)C[C@H](O)CC(O)C[C@H](O)[C@H](C)/C=C/C=C/C=C(C)/C=C/C=C/C(=O)O[C@@H]1C[C@@H](C(=O)O)CC[C@@H]1O` (stereo partly drawn) [Compound 12]: the MIC under setting [1] was > 64 µg/mL.

On to `CC/C=C/[C@@H](OC(N)=O)[C@@H](Cl)[C@H](O)CC(=O)[C@@H](O)[C@H](O)[C@H](C)/C(Cl)=C/C=C/C=C(C)/C=C/C=C/C(=O)O[C@@H]1CC(C(=O)O)=CC[C@@H]1O` [Compound 28, Δ5912-14 unsaturated enacyloxin analogue], for which the MIC under setting [1] was determined as 0.5 µg/mL (≈ 0.714 µM).

For `CC/C=C/[C@@H](O)C[C@H](O)CC(O)[C@@H](O)[C@H](O)[C@H](C)/C(Cl)=C/C=C/C=C(C)/C=C/C=C/C(=O)O[C@@H]1C[C@@H](C(=O)O)CC[C@@H]1O` (stereo partly drawn) [Compound 11], under setting [1], the MIC stood at 8 µg/mL (≈ 12.8 µM).

Take `CC/C=C/[C@@H](O)[C@@H](Cl)[C@H](O)C[C@@H](O)[C@@H](O)[C@H](O)[C@H](C)/C(Cl)=C/C=C/C=C(C)/C=C/C=C/C(=O)O[C@@H]1CC(C(=O)O)=CC[C@@H]1O` [Compound 29, Δ5930/32/12-14 unsaturated enacyloxin analogue]: under setting [1], the MIC stood at 1 µg/mL (≈ 1.52 µM).

With `CC/C=C/[C@@H](O)[C@@H](Br)[C@H](O)CC(O)[C@@H](O)[C@H](O)[C@H](C)/C(Br)=C/C=C/C=C(C)/C=C/C=C/C(=O)O[C@@H]1C[C@@H](C(=O)O)CC[C@@H]1O` (stereo partly drawn) [Compound 33], under setting [1], the MIC came out at 1 µg/mL (≈ 1.33 µM).

In the case of `CC/C=C/[C@@H](OC(N)=O)[C@@H](Cl)[C@H](O)CC(O)[C@@H](O)[C@H](O)[C@H](C)/C(Cl)=C/C=C/C=C(C)/C=C/C=C/C(=O)O[C@@H]1C[C@@H](C(=O)O)CC[C@@H]1O` (stereo in doubt) [Compound 8, 15-hydroxy-enacyloxin IIa], the MIC (18 h) amounted to 8 µg/mL (≈ 11.4 µM).

In the case of `CC/C=C/[C@H](C[C@H](O)CC(=O)C[C@H](O)[C@H](C)/C(Cl)=C/C=C/C=C(C)/C=C/C=C/C(=O)O[C@@H]1C[C@@H](C(=O)O)CC[C@@H]1O)OC(N)=O` [Compound 6, 14-dehydroxy-18-dechloro-enacyloxin IIa], the MIC under setting [1] was found to be 8 µg/mL (≈ 12.3 µM).
